In ChEMBL document CHEMBL1130524, “An aromatic moiety is not essential for pharmacophore binding to sigma binding sites: Synthesis of N-alkylazacycloheptane derivatives as potent sigma ligands” (Bioorg Med Chem Lett, 1997):

These compounds were tested against Sigma 2 receptor (assay: Inhibition of [3H]-DTG binding to Sigma opioid receptor type 2).

Row | SMILES | Ki
1 | CC1(C)C2CC[C@]1(C)CN(CCCC1CCCCC1)C2 | 0.56 nM
2 | CC1(C)C2CC[C@]1(C)CN(CCC1CCCCCCC1)C2 | 0.33 nM
3 | CC1(C)C2CC[C@@]1(C)CN(CC1CCCCC1)C2 | 3.54 nM
4 | CC1(C)C2CC[C@]1(C)CN(CC1CCCCC1)C2 | 3.14 nM
5 | CC1(C)C2CC[C@]1(C)CN(CCC1CCCC1)C2 | 0.7 nM
6 | CC1(C)C2CC[C@]1(C)CN(CCC1C3CC4CC(C3)CC1C4)C2 (some centres not stated) | 0.77 nM
7 | CC1(C)C2CC[C@]1(C)CN(C1CCCCC1)C2 | 1.1 nM
8 | CC1(C)C2CC[C@]1(C)CN(CCCCC1CCCCC1)C2 | 6.79 nM
9 | CC1(C)C2CC[C@]1(C)CN(CCC1CCCCC1)C2 | 0.28 nM
10 | CC1(C)C2CC[C@@]1(C)CN(CCC1CCCCC1)C2 | 0.23 nM
11 | CC1(C)C2CC[C@]1(C)CN(CCC1CCCCCC1)C2 | 0.25 nM
12 | C=CCN1CC[C@@]2(C)c3cc(O)ccc3C[C@H]1[C@H]2C (racemic) | 14200 nM
